Entries after “also recorded” stand apart in the source; their conditions may differ. Like-named read-outs stand apart in the source and are kept apart here.
Tests used:
[1] = tested on: ZIKV replication complexes; assay: In vitro replication assay with crude replication complexes and clickable uridine analog (5EU); format: biochemical; conditions: crude replication complexes from ZIKV-infected cells
[2] = tested on: ZIKV; assay: Quantification of (+)vRNA and viral particles by qPCR and plaque assays, ZIKV-infected cells; format: cell-based; conditions: added at 24 h, analyzed at 36 hpi
[3] = tested on: ZIKV; format: cell-based, ZIKV PRVABC59
[4] = tested on: DENV; format: cell-based, DENV-2 strain 16681
[5] = tested on: ZIKV RNA translation initiation; assay: Sucrose gradient polysome fractionation with qPCR of GAPDH mRNA and ZIKV plus-strand RNA; format: cell-based; conditions: then 30 nM RocA for 30 min
[6] = tested on: PV; format: cell-based, PV-1 Mahoney
[7] = tested on: ZIKV NS5 and E; format: cell-based; conditions: added at 24 h, analyzed at 36 hpi; compared to CHX or Puro
[8] = tested on: ebola, chikungunya, influenza and ZIKV; conditions: cited from earlier work

Structure (SMILES)	ZIKV replication in vitro (5EU labelling of newly synthesized RNA) [1]	accumulation of viral RNA or particles [2]	virus production (ZIKV) [3]	virus production (DENV) [4]	further results
C[C@@]1(O)[C@H](O)[C@@H](CO)O[C@H]1n1cnc2c(N)ncnc21 [2′CMA]	reduced				
C[C@@H]1C[C@@H]([C@H](O)CC2CC(=O)NC(=O)C2)C(=O)[C@@H](C)C1 [CHX, cycloheximide]		reduced viral replication			
CCOC(=O)c1ccc(-c2ncc(C(=O)OCC)s2)nc1 [PythiDC, Diethyl-pythiDC]			inhibit virus replication	inhibit virus replication	
COc1ccc([C@@]23Oc4cc(OC)cc(OC)c4[C@]2(O)[C@H](O)[C@H](C(=O)N(C)C)[C@H]3c2ccccc2)cc1 [RocA, Rocaglamide A]	reduced	reduced viral replication	strongly reduced; also recorded: blocks viral replication; also recorded: drastic dose-dependent decrease	strongly reduced; also recorded: blocks viral replication; also recorded: drastic dose-dependent decrease	distribution of ZIKV plus-strand RNA in gradient fractions ([5]; ZIKV-infected cells 24 h): shift of ZIKV RNA to lighter fractions; distribution of GAPDH mRNA in gradient fractions ([5]; mock or ZIKV-infected cells 24 h): did not affect; virus production (PV) [6]: only minor effects; also recorded: not PV; accumulation of NS5 or E [7]: mild inhibitory effect
CC(/C=C/C(C)=C/[C@@H]1Cc2nc(cs2)[C@@H](C)C[C@@H](N)CC(=O)O[C@@H](C)C/C(C)=C/C=C\C(=O)O1)=C\CN(C)C [pateamine A]					antiviral activity [8]: antiviral activity
COC(=O)[C@H]1[C@@H](O)[C@@]2(O)c3c(OC)cc(O[C@@H]4O[C@@H]([C@H](O)CO)CO[C@H]4OC)cc3O[C@@]2(c2ccc(OC)cc2)[C@@H]1c1ccccc1 [silvestrol]					antiviral activity ([8]; against ebola, chikungunya, influenza and ZIKV, literature references): antiviral activity
